Data taken from patent publication US10322191B2, “Targeted conjugates and particles and formulations thereof” (TARVEDA THERAPEUTICS, INC., priority 2014, dated 2019).
Like-named read-outs stand apart in the source and are kept apart here. Numbered stars: 1 amine (or outer) side, 2 acyl side, 3 side chain; on linkers, the order of the positions; unused ones are H or OH. Bridge positions count the residues as written; N and C are the ends. Square brackets hold non-standard residues; d marks the D form. Peptide text beside a SMILES is read from it. * marks the point of attachment. X1 = COc1cc2cc(c1Cl)N(C)C(=O)C[C@H](OC(=O)[C@H](C)N(C)C(=O)CCS*)[C@]1(C)O[C@H]1[C@H](C)[C@@H]1C[C@@](O)(NC(=O)O1)[C@H](OC)/C=C/C=C(\C)C2; N(3-sulfanylpropyl)dPhe = O=C([C@@H](Cc1ccccc1)N(CCCS[*:3])[*:1])[*:2]

Legend:
SSTR2 [1] = molecular target: T1, SSTR2 (Homo sapiens, UniProt P30874); assay: PathHunter eXpress Activated GPCR Internalization agonist assay; format: cell-based; parameters: expressed in transfected cells; details: receptor internalization, agonist dose response
T1 sequence (P30874 whole entry): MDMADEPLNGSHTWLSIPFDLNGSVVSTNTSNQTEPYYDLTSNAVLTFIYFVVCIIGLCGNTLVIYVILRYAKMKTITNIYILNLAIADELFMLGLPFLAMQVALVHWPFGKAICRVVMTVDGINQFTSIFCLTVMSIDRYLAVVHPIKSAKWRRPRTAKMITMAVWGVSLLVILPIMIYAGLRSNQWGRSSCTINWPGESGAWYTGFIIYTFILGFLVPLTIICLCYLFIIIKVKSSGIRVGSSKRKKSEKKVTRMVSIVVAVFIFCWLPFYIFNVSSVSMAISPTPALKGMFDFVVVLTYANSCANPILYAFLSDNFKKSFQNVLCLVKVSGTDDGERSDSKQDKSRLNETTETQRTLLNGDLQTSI
Method: Two conjugates were assessed in an in vitro assay evaluating SSTR2. The steps outlined below provide the assay volumes and procedure for performing agonist assays using the PathHunter eXpress Activated GPCR Internalization cells and PathHunter Detection Reagents generally according to the manufacturer's recommendations. GraphPad Prism® was used to plot the agonist dose response.

[2] = system: NCI-H524 (ATCC) human lung cancer cells; format: cell-based
Procedure, shortened: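 NCI-H524 cells at 5,000/well were exposed to conjugate for 2 h from 20 μM top dose (ten-point, three-fold dilutions), washed, then grown a further 70 h. For competition, cells were pretreated 30 min with 100 μM octreotide. CellTiter Glo readout; % inhibition vs vehicle; four-parameter IC50.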

[3] = Solubility in aqueous media containing surfactants such as Tween 80; format: physicochemical; details: aqueous Tween 80
SSTR2 [4] = molecular target: T1, SSTR2; assay: Radioligand-receptor binding assay, [125I] labeled somatostatin, membranes from SSTR2 expressing CHO-K1 cells; parameters: host or cells: CHO-K1
Method: Two conjugates were assessed in an in vitro assay evaluating binding to the somatostatin receptor 2 (SSTR2). A radioligand-receptor binding assay was conducted at Eurofins Panlabs (Taiwan) to determine the affinity of conjugates described herein to the SSTR2. The assay measures binding of radiolabeled ligand, [^125I] labeled somatostatin, to human SSTR2 using membrane preparations from SSTR2 expressing CHO-K1 cells. Membranes were incubated with radiolabeled somatostatin (0.03 nM) in the presence of conjugate/compound starting at a dose of 10 uM using 6× serial dilutions to obtain a 10-pt curve. After a four-hour incubation, membranes were filtered and washed 3× and counted to determine the remaining [^125I] somatostatin bound to the receptor. IC50 values were determined by a non-linear, least squares regression analysis using MathIQ™ (ID Business Solutions Ltd., UK). The Ki values were calculated using the equation of Cheng and Prusoff (Cheng and Prusoff, Biochem. Pharmacol. 22: 3099-3108, 1973) using the observed IC50 of the tested conjugate/compound, the concentration of radioligand employed in the assay, and the historical values for the KD of the ligand obtained at Eurofins.

[5] = Pharmacokinetics in rat plasma of Conjugate 10 and Conjugate 10 NP6; details: in vivo
Method: Pharmacokinetics studies in rat plasma were also carried out. AUC values were show in Table 16.

human NCI-H69 SCLC = assay: Tumor growth of human NCI-H69 SCLC in mice; format: in vivo, NCR nude mice; details: for tumor volume: Conjugate 10 and Conjugate 10 NP6 2 mg/kg, DM1 0.8 mg/kg, once weekly for two doses, up to 100 days, FIG. 4
Method: Applicants assessed the activity of a conjugate and a nanoparticle formulation of the conjugate in vivo. In these experiments, the ability of compounds to affect the growth of human NCI-H69 SCLC was tested. For the in vivo study, 8 week old female NCR nude mice were inoculated subcutaneously into the right flank with 2 million cells in 1:1 RPMI 1640 (Invitrogen, Carlsbad, Calif.)/Matrigel® (BD Biosciences, San Jose, Calif.). Tumor measurements were taken twice weekly, using vernier calipers. Tumor volume was calculated using the formula: V=0.5×width×width×length.
When tumors approached a volume of 200 mm^3, mice were randomized into four groups of ten animals. Mice were treated with vehicle control (10% propylene glycol in water for injection), Conjugate 10 at 2 mg/kg (10% propylene glycol in water for injection), Conjugate 10 NP6 nanoparticle at 2 mg/kg (10% Sucrose), or DM1 at 0.8 mg/kg (10% propylene glycol in water for injection). Mice were dosed once weekly for two doses. Final tumor volumes were analyzed using with a one-way analysis of variance and Tukey multiple comparison test.
Tumor volume study was repeated with three doses for vehicle, Conjugate 10 (0.7 mg/kg each), and Conjugate 10 NP6 (0.7 mg/kg each). Tumor volumes were tracked for 30 days.

phospho-histone H3 = assay: Phospho-histone H3 response in NCI-H69 tumors; format: in vivo; details: FIG. 8
[6] = system: NCI-H69 SCLC (small cell lung cancer) tumors; assay: H69 tumor DM-1 levels by LC/MS-MS; format: in vivo, mice; details: 24 hour time point; dosed at 1 mg/kg (conjugates, nanoparticles) or 0.4 mg/kg for DM-1
Method: To examine the ability of conjugates of the present invention to accumulate in tumors, a murine cancer model was used. All mice were treated in accordance with the OLAW Public Health Service Policy on Human Care and Use of Laboratory Animals and the ILAR Guide for the Care and Use of Laboratory Animals. All in vivo studies were conducted following the protocols approved by the Blend Therapeutics Institutional Animal Care and Use Committee. Animals were inoculated with 2.5×10{circumflex over (0)}6 NCI-H69 SCLC (small cell lung cancer) cells in 1:1 RPMI 1640 (Invitrogen, Carlsbad, Calif.)/Matrigel® (BD Biosciences, San Jose, Calif.) via subcutaneous injection to the right flank. Tumors were allowed to reach an approximate volume of ˜500 mm3. Animals were then randomized into treatment groups of 3 animals per time point and were dosed at 1 mg/kg (10% propylene glycol in water for injection for free conjugates, or 10% sucrose for nanoparticles), or 0.4 mg/kg for DM-1 (10% propylene glycol in water for injection). The 24 hour time point was used as a benchmark across conjugates.
Tumor DM-1 levels were determined by liquid chromatography mass spectrometry (LC/MS-MS). Four volumes of 5 mM 6-maleimidohexanoic acid to 1 part tumor v/w was added and homogenized for about 10-15 seconds with a handheld homogenizer. 10 μL of 500 mM Tris(2-carboxyethyl)phosphine was added to 100 uL of tumor homogenate, mixed well and incubated at room temperature for about 5-15 min. 200-300 uL of acetonitrile was used to precipitate proteins in tumor homogenate, samples were centrifuged for 5 min, and supernatant was injected onto LC/MS-MS system for DM-1 analysis.

[7] = Table 6, treated 2 hours, further incubated 70 hours, read-out: H524 IC50
[8] = read-out: H524 IC50 + 100 μM octreotide, Table 6, with octreotide competition
[9] = Table 15, treated 2 hours, further incubated 70 hours, read-out: H524 IC50
[10] = read-out: H524 IC50+ 100 uM octreotide, Table 15, 100 μM octreotide for 30 min, then conjugate 2 hours, 70 hours incubation

Structure (SMILES)	EC50 (SSTR2 [1]) [nM]	IC50 [2, 9] [nM]	IC50 [2, 10] [nM]	Ki (SSTR2 [4]) [nM]	H69 tumor DM-1 levels [6] [nM]	further results
CO[C@H]1C(=O)[C@]2(C)[C@@H](OC)C[C@H]3OC[C@@]3(OC(C)=O)[C@H]2[C@H](OC(=O)c2ccccc2)[C@]2(O)C[C@H](OC(=O)[C@H](OC(=O)OCCSSCCC(=O)N[C@H](Cc3ccccc3)C(=O)N[C@H]3CSSC[C@@H](C(=O)N[C@H](CO)[C@@H](C)O)NC(=O)[C@H]([C@@H](C)O)NC(=O)[C@H](CCCCN)NC(=O)[C@@H](Cc4c[nH]c5ccccc45)NC(=O)[C@H](Cc4ccccc4)NC3=O)[C@@H](NC(=O)OC(C)(C)C)c3ccccc3)C(C)=C1C2(C)C [Conjugate 1]	4.4	–	–	–	–	IC50 [2, 7]: 110 nM; IC50 [2, 8]: 146 nM; solubility in aqueous media containing surfactants such as Tween 80 [3]: high solubility; Ki (SSTR2 [4]; read-out: SSTR2 Ki): 0.8 nM
COc1cccc2c1C(=O)c1c(O)c3c(c(O)c1C2=O)C[C@@](O)(C(=O)COC(=O)CCCC(=O)N[C@H](Cc1ccccc1)C(=O)N[C@H]1CSSC[C@@H](C(=O)N[C@H](CO)[C@@H](C)O)NC(=O)[C@H]([C@@H](C)O)NC(=O)[C@H](CCCCN)NC(=O)[C@@H](Cc2c[nH]c4ccccc24)NC(=O)[C@H](Cc2ccccc2)NC1=O)C[C@@H]3O[C@H]1C[C@H](N)[C@H](O)[C@H](C)O1 [Conjugate 2]	35	–	–	–	–	IC50 [2, 7]: 2850 nM; IC50 [2, 8]: 2940 nM; solubility in aqueous media containing surfactants such as Tween 80 [3]: high solubility; Ki (SSTR2 [4]; read-out: SSTR2 Ki): 0.24 nM
COc1cc2cc(c1Cl)N(C)C(=O)C[C@H](OC(=O)[C@H](C)N(C)C(=O)CCSSCCC(=O)NCCCC[C@H]1C(=O)N[C@@H](Cc3ccc(O)cc3)C(=O)N[C@H](Cc3c[nH]c4ccccc34)C(=O)N[C@@H](CCCCN)C(=O)N[C@@H]([C@@H](C)O)C(=O)N[C@@H](Cc3ccccc3)C(=O)N1C)[C@]1(C)O[C@H]1[C@H](C)[C@@H]1C[C@@](O)(NC(=O)O1)[C@H](OC)/C=C/C=C(\C)C2 [Conjugate 10]	–	156	625	0.1	72.1	AUC(0-inf) [5]: 0.377 µM·h; clearance [5]: 13 mL/min/kg; tumor volume (human NCI-H69 SCLC): initially provided tumor regression, but tumors regrew; animals removed from the study due to large tumor size (tumor size less than 2000 mm^3 curve) (human NCI-H69 SCLC; out to 100 days, 2 mg/kg, two doses, FIG. 5): three; phospho-histone H3 response in NCI-H69 tumors after treatment (phospho-histone H3): Increase; phospho-histone H3 response at around 50 hour (phospho-histone H3; around 50 hour): started to decrease
COc1cc2cc(c1Cl)N(C)C(=O)C[C@H](OC(=O)[C@H](C)N(C)C(=O)CCSSCCCN[C@H](Cc1ccccc1)C(=O)N[C@H]1CSSC[C@@H](C(=O)N[C@H](CO)[C@@H](C)O)NC(=O)[C@H]([C@@H](C)O)NC(=O)[C@H](CCCCN)NC(=O)[C@@H](Cc3c[nH]c4ccccc34)NC(=O)[C@H](Cc3ccccc3)NC1=O)[C@]1(C)O[C@H]1[C@H](C)[C@@H]1C[C@@](O)(NC(=O)O1)[C@H](OC)/C=C/C=C(\C)C2 [Conjugate 76]	3	120	768	0.12	62.2	–
COc1cc2cc(c1Cl)N(C)C(=O)C[C@H](OC(=O)[C@H](C)N(C)C(=O)CCSSCCCN[C@H](Cc1ccccc1)C(=O)N[C@H]1CSSC[C@@H](C(=O)N[C@@H](Cc3c[nH]c4ccccc34)C(N)=O)NC(=O)[C@H](C(C)C)NC(=O)[C@H](CCCCN)NC(=O)[C@@H](Cc3c[nH]c4ccccc34)NC(=O)[C@H](Cc3ccc(O)cc3)NC1=O)[C@]1(C)O[C@H]1[C@H](C)[C@@H]1C[C@@](O)(NC(=O)O1)[C@H](OC)/C=C/C=C(\C)C2 [Conjugate 78] (H-[N(3-sulfanylpropyl)dPhe](X1)CY[dW]KVCW-NH2; disulfide 2-7)	–	124	365	0.19	36.2	–
COc1cc2cc(c1Cl)N(C)C(=O)C[C@H](OC(=O)[C@H](C)N(C)C(=O)CCS)[C@]1(C)O[C@H]1[C@H](C)[C@@H]1C[C@@](O)(NC(=O)O1)[C@H](OC)/C=C/C=C(\C)C2 [DM1, reference compound]	–	–	–	–	–	tumor volume (human NCI-H69 SCLC): tumor volume increased rapidly
COc1cc2cc(c1Cl)N(C)C(=O)C[C@H](OC(=O)[C@H](C)N(C)C(=O)CCS)[C@]1(C)O[C@H]1[C@H](C)[C@@H]1C[C@@](O)(NC(=O)O1)[C@H](OC)/C=C/C=C(\C)C2 [DM-1, reference compound]	–	90	90	–	31.6	–
